Experimental data reported in paper PMC11157767 (Molecular Cancer, 2024).
Where “and” joins values, the source holds several entries; their conditions need not be identical. Identical values can stand only once. Like-named read-outs stand apart in the source and are kept apart here.

Columns and labels:
[1] = system: TRIM24-MET L97 human glioma cell lines; assay: γH2AX immunofluorescence after 4 Gy irradiation, TRIM24-MET human glioma cells; format: cell-based; details: 1, 2, 3 and 4 hours following 4 Gy irradiation
Procedure: (§1) Error bars display standard error of mean, statistical significance was determined using t-test analysis. (****;p<0.0001, ***;p<0.001, **;p<0.01, *;p<0.05). […] Each dot represents an individual replicate. Error bars display standard error of the mean. Statistical significance was determined using a One-Way ANOVA followed by Tukey’s multiple comparisons test (*p<0.05, **p<0.01, ***p<0.001, ****p<0.0001).

[2] = system: cells isolated from murine tumors induced by overexpressing TFG-MET alone; details: without Trp53 knockout
[3] = mNSCLC patients; cited from earlier work
TFG-MET cells = assay: γH2AX immunofluorescence after 8Gy irradiation, TFG-MET cells; format: cell-based, mouse; details: various time points following 8Gy irradiation
Source text: Error bars display standard error of mean, statistical significance determined using t-test analysis, *;p<0.05. Scale bar is 10µm.

TRIM24-MET-i PDOX [4] = details: for BLI signal, individual mice: PDX trial cap vs cabo
Procedure: (§2) All treatments started 18 days after transplantation. Radiotherapy was administered at 0.5 Gy per day, delivering 10 Gy total.
Each line represents one mouse. The ends of lines indicate the onset of neurological symptoms and thereby the endpoints. Treatment started on day 13.

Kap1 pS824 = assay: Western blot of phosphorylated Kap1 (pS824) in TFG-MET allograft tumors; format: in vivo, mouse; details: capmatinib and RT
Procedure: as §1

[5] = In vitro protein binding assay, naive mouse brain tissue homogenate
[6] = In vitro protein binding assay, mouse plasma
TRIM24-MET-i PDOX [7] = assay: TRIM24-MET-i PDOX 4-arm trial capmatinib +/- RT (survival, BLI, body weight); format: in vivo, mouse
Procedure: as §2
Treatment started on day 13.

in vitro [8] = details: mouse, plasma
in vitro [9] = details: mouse, brain homogenate
MET-fusion pHGG = details: cited from earlier work

CNC(=O)c1ccc(-c2cnc3ncc(Cc4ccc5ncccc5c4)n3n2)cc1F [Capmatinib]
percentage of cells with ≥20 γH2AX-foci vs DMSO [1]: significantly higher
inhibition in dose response assay [2]: potently inhibited
discontinuation due to fatigue [3]: 1.5%
discontinuation due to peripheral edema [3]: 1.8%
discontinuation due to pneumonitis [3]: 1.8%
patients permanently discontinued due to an adverse reaction [3]: 16%
percentage of cells with ≥10 γH2AX-foci vs DMSO (TFG-MET cells): significantly higher
BLI signal, individual mice (TRIM24-MET-i PDOX [4]; day 7): 3.18E+07 and 1.72E+07 and 3.36E+07
BLI signal, individual mice (TRIM24-MET-i PDOX [4]; day 9): 7.47E+07 and 3.47E+07
BLI signal, individual mice (TRIM24-MET-i PDOX [4]; day 14): 5.84E+07 and 2.51E+07
BLI signal, individual mice (TRIM24-MET-i PDOX [4]; day 17): 2.44E+07 and 1.00E+07
BLI signal, individual mice (TRIM24-MET-i PDOX [4]; day 21): 1.66E+07 and 1.85E+07
BLI signal, individual mice (TRIM24-MET-i PDOX [4]; day 24): 1.50E+07 and 1.24E+07
BLI signal, individual mice (TRIM24-MET-i PDOX [4]; day 28): 1.39E+07 and 1.53E+07
BLI signal, individual mice (TRIM24-MET-i PDOX [4]; day 31): 7.80E+06 and 1.43E+07
BLI signal, individual mice (TRIM24-MET-i PDOX [4]; day 35): 9.55E+06 and 1.60E+07 and 7.43E+06
BLI signal, individual mice (TRIM24-MET-i PDOX [4]; day 38): 8.92E+06 and 1.56E+07 and 7.00E+06
BLI signal, individual mice (TRIM24-MET-i PDOX [4]; day 42): 7.91E+06 and 1.63E+07 and 5.51E+06
BLI signal, individual mice (TRIM24-MET-i PDOX [4]; day 45): 9.52E+06 and 1.30E+07 and 6.98E+06
BLI signal, individual mice (TRIM24-MET-i PDOX [4]; day 49): 7.93E+06 and 9.97E+06 and 5.88E+06
BLI signal, individual mice (TRIM24-MET-i PDOX [4]; day 52): 7.48E+06 and 8.25E+06 and 4.19E+06
BLI signal, individual mice (TRIM24-MET-i PDOX [4]; day 56): 8.25E+06 and 1.00E+07 and 5.09E+06
BLI signal, individual mice (TRIM24-MET-i PDOX [4]; day 59): 2.02E+06 and 8.98E+06 and 4.17E+06
BLI signal, individual mice (TRIM24-MET-i PDOX [4]; day 63): 5.64E+06 and 9.13E+06 and 4.23E+06
BLI signal, individual mice (TRIM24-MET-i PDOX [4]; day 66): 6.00E+06 and 8.25E+06 and 4.18E+06
BLI signal, individual mice (TRIM24-MET-i PDOX [4]; day 70): 1.53E+06 and 8.82E+06 and 4.89E+06
BLI signal, individual mice (TRIM24-MET-i PDOX [4]; day 73): 1.32E+06 and 6.23E+06 and 4.17E+06
BLI signal, individual mice (TRIM24-MET-i PDOX [4]; day 77): 4.79E+05 and 1.07E+07 and 4.65E+06
BLI signal, individual mice (TRIM24-MET-i PDOX [4]; day 80): 4.21E+05 and 1.01E+07 and 4.77E+06
BLI signal, individual mice (TRIM24-MET-i PDOX [4]; day 87): 5.96E+05 and 1.05E+07 and 4.96E+06
BLI signal, individual mice (TRIM24-MET-i PDOX [4]; day 94): 8.51E+05 and 7.79E+06
BLI signal, individual mice (TRIM24-MET-i PDOX [4]; day 101): 4.10E+05 and 7.68E+06
BLI signal, individual mice (TRIM24-MET-i PDOX [4]; day 108): 4.16E+05 and 7.10E+06
BLI signal, individual mice (TRIM24-MET-i PDOX [4]; day 115): 3.96E+05 and 8.39E+06
BLI signal, individual mice (TRIM24-MET-i PDOX [4]; day 122): 5.52E+05 and 6.96E+06
BLI signal, individual mice (TRIM24-MET-i PDOX [4]; day 129): 5.43E+05 and 7.67E+06
BLI signal, individual mice (TRIM24-MET-i PDOX [4]; day 134): 7.37E+05 and 1.29E+07
BLI signal, individual mice (TRIM24-MET-i PDOX [4]; day 142): 2.48E+05 and 8.31E+06
BLI signal, individual mice (TRIM24-MET-i PDOX [4]; day 147): 1.01E+05 and 6.09E+06
BLI signal, individual mice (TRIM24-MET-i PDOX [4]; day 154): 7.12E+04 and 6.90E+06
BLI signal, individual mice (TRIM24-MET-i PDOX [4]; day 161): 9.26E+04 and 5.65E+06
BLI signal, individual mice (TRIM24-MET-i PDOX [4]; day 175): 1.61E+05 and 5.72E+06
BLI signal, individual mice (TRIM24-MET-i PDOX [4]; day 182): 4.78E+04 and 7.21E+06
BLI signal, individual mice (TRIM24-MET-i PDOX [4]; day 190): 3.12E+05 and 5.75E+06
BLI signal, individual mice (TRIM24-MET-i PDOX [4]; day 196): 6.90E+05 and 4.81E+06
BLI signal, individual mice (TRIM24-MET-i PDOX [4]; day 203): 1.41E+06 and 5.43E+06
BLI signal, individual mice (TRIM24-MET-i PDOX [4]; day 210): 4.51E+07 and 1.12E+07
BLI signal, individual mice (TRIM24-MET-i PDOX [4]; day 217): 1.20E+07
BLI signal, individual mice (TRIM24-MET-i PDOX [4]; day 224): 3.17E+07
BLI signal, individual mice (TRIM24-MET-i PDOX [4]; day 231): 3.11E+08
BLI signal, individual mice (TRIM24-MET-i PDOX [4]; day 238): 8.31E+08
survival over the 19-week treatment period (TRIM24-MET-i PDOX [4]; capmatinib BID, 8 mice): all mice surviving
mice with initial tumor regression (luciferase imaging) (TRIM24-MET-i PDOX [4]; capmatinib monotherapy): two out of eight
mice with stable disease (BLI) (TRIM24-MET-i PDOX [4]; capmatinib monotherapy): six out of eight
mice with tumor relapse within 6 months after treatment ceased (TRIM24-MET-i PDOX [4]; capmatinib, treated 133 days): 7 of 8
phosphorylated Kap1 in tumors vs vehicle + RT (Kap1 pS824): significantly greater increase
fraction unbound [5]: 0.113
fraction unbound [6]: 0.0502
mice with spinal metastasis after therapy was withdrawn (TRIM24-MET-i PDOX [7]; capmatinib + RT): one
tumor burden (TRIM24-MET-i PDOX [7]; capmatinib + RT (0.5 Gy per day, 10 Gy total)): profoundly and stably decreased tumor burden
disease course under monotherapy (TRIM24-MET-i PDOX [7]; capmatinib alone): stable disease in all treated animals

C[C@@H](Oc1cc(-c2cnn(C3CCNCC3)c2)cnc1N)c1c(Cl)ccc(F)c1Cl [Crizotinib]
fraction unbound (in vitro [8]): 0.0223
fraction unbound (in vitro [9]): 0.0106
clinical response of one pHGG patient with MET fusion (MET-fusion pHGG): partial response with rapid tumor relapse
